Results on 6 molecules are retold here after US11267791B2 (F.I.S.—FABBRICA ITALIANA SINTETICI S.P.A., priority 2018, dated 2022).

Counter-ions that a name gives are not always drawn.

Data set [1] can be described thus: Stability study of Form E, atmospheric and ICH accelerated conditions, XRPD. The data set is classed as physicochemical. The conditions noted are these: after 1 day of exposition. Here is the method:
In the first ETP monoethanolamine salt Form E was exposed to atmospheric conditions for 1 day was unstable, and a new form very similar to Form II (ETP bisethanolamine salt) described in U.S. Pat. No. 8,372,822B2 was recovered according to XRPD analysis. In the second ETP monoethanolamine salt Form E was exposed to ICH guideline accelerated conditions (40° C./75 RH %). Under these conditions, Form E converted partially to a new unknown form.

For data set [2] the following is noted: cited from earlier work.
Data set [3] is described as follows: Hygroscopicity study by DVS (Dynamic Vapour Sorption). As to conditions: 25° C.; for humidity adsorbed (water uptake) / hygroscopicity (water uptake): at 95% RH. The data set is classed as physicochemical. The method, then: Hygroscopicity study was determined by DVS (Dynamic Vapour Sorption) with a Q5000 TA instrument. This is a gravimetric technique that measures how much water is absorbed or desorbed by a sample at different relative humidity (RH). At each RH, the sample mass must be allowed to reach gravimetric equilibrium (or surpassed time limit) before progressing to the next humidity level. Sorption and desorption isotherms were performed at 25° C. over a range of 0-95% RH. The samples gently milled were not previously dried but they were exposed to 0% RH until a stable weight was reached before starting the DVS cycle. This equilibration step allows possible adsorbed humidity to be eliminated.

Data set [4] can be described thus: Preliminary stability in water at RT, slurry analysed by XRPD. The data set is classed as physicochemical. As to conditions: XRPD at 1, 3, 6 and 24 h. The method, then: A preliminary test stability study in water at RT of 4 ETP monoethanolamine salt Forms was performed in order to observed possible crystalline transitions. A sample of each crystalline form was slurried in water at RT and periodically analysed by XRPD (1, 3, 6 and 24 h) in order to detect possible crystalline transformation.

Data set [5] can be described thus: Relative thermodynamic solubility in water at RT by HPLC. The format is physicochemical. Here is the method:
The relative solubility of the above mentioned 4 ETP monoethanolamine salt Forms was studied in water at RT. The validity of any solubility measurement requires that the crystalline form must remain stable with respect to any phase conversion taking place during the determination of the equilibrium solubility.
This suspension was stirred 24 h at RT in order to reach the equilibrium. Then, a sample was filtered and the resulting filtrate was analysed by HPLC by duplicate. The average peak area of ETP gave a relative value of the thermodynamic solubility of each form that can be compared with each other. The solids recovered after filtration were also analysed by XRPD to check that no crystalline phase transformation occurred during the slurring.
HPLC ETP peak area in each of the different forms analysed was measured in order to establish their relative solubility. The HPLC analyses were performed by duplicate for each ETP monoethanolamine salt.

Data set [6] is described as follows: Crystalline stability of Form D1 under accelerated ICH guideline conditions, XRPD. The format is physicochemical. From the text:
This sample was periodically analysed by XRPD in order to observe possible crystalline transformation or amorphization. Moreover, a sample of ETP monoethanolamine salt Form D1 stored on a XRPD silicon holder was exposed in a climatic chamber. It is worth noting that these stability conditions are harsher than standard stability conditions due to the high surface of exposition of the solid stored on the XRPD silicon holder. The samples were periodically analysed by XRPD to observe possible crystalline transformation.

Regarding “Eltrombopag monoethanolamine salt [Form E]”, the “result of stability study, crystalline form by XRPD” value was “partial conversion to a new form with a main peak at 8.6° (2θ)” in data set [1] (40° C./75 RH %, ICH accelerated) and “Form II+one peak at 8.6° (2θ)” in data set [1] (atmospheric conditions).
Consider `CC1=NN(c2ccc(C)c(C)c2)C(=O)/C1=N\Nc1cccc(-c2cccc(C(=O)O)c2)c1O` [Eltrombopag olamine, Eltrombopag bisethanolamine salt], for which the “thermally stable up to” value in data set [2] (at higher temperature endothermic reaction associated with degradation) is “about 125 °C”. Besides, the solubility in water entry in data set [2] is on record as “sparingly soluble”.
In the case of `CC1=NN(c2ccc(C)c(C)c2)C(=O)/C1=N\Nc1cccc(-c2cccc(C(=O)O)c2)c1O` [Form D1, Eltrombopag monoethanolamine salt], the “humidity adsorbed (water uptake)” value in data set [3] is “less than 0.2 % w/w”. Further, the “crystalline stability slurried in water” value in data set [4] was “remained stable”. The molecule also had an Intensity test average in data set [5] (average of solubility tests #1 and #2, HPLC ETP peak area) of 2911. The “Solubility test #1 (area counts)” value in data set [5] (saturated water solution, 24 h at RT, HPLC ETP peak area) stood at 2722 area counts. The “Solubility test #2 (area counts)” value in data set [5] (saturated water solution, 24 h at RT, HPLC ETP peak area, repeat) was 3100 area counts. Besides, in data set [6] (2 months study period), the “crystalline stability in words” value is recorded as “remained stable”. The “period the crystalline form remains stable” value in data set [6] (T=40° C./75±5% RH (chamber 45±2° C.-75±5% RH)) is recorded as “at least 2 months”.
On to “Eltrombopag monoethanolamine salt [Form H2]”, for which, in data set [3] (listed as ETP monoethanolamine salt Form H2), the “hygroscopicity (water uptake)” value came out at 0.6 w/w.
Consider “Eltrombopag monoethanolamine salt [Form D]”, for which the hygroscopicity in words result in data set [3] (up to 85% RH, listed as ETP monoethanolamine salt Form D) is recorded as “not hygroscopic”.
Turning to “Eltrombopag monoethanolamine salt [Form H]”, in data set [3], the “humidity adsorbed (water uptake)” value was “up to 1.4 % w/w” and the “hygroscopicity (water uptake)” value is reported as 1.4 w/w. Also, in data set [4], the “crystalline stability slurried in water” value is “remained stable”.
